Assay results from patent publication US20260315505A1, “COMBINED INHIBITION OF TYROSINE PHOSPHATASES TCPTP AND PTP1B AND PD-1 BLOCKAGE IMMUNOTHERAPY IN THE TREATMENT OF CANCER” (Kanyr Pharma Inc., priority 2022, published 2026).
Read-outs that look alike come from different tables or passages of the source.

Legend:
[1] = tested on: E.G7 targets (lysis by CD8 T cells / CTLs); assay: in vitro cytotoxicity of CTLs against OVA expressing E.G7 thymoma cells; format: cell-based, mouse; conditions: C57BL/6 CTLs; relative to Inh1; FIG. 12C
From the text: FIG. 5A Illustrates that pharmacological inhibition of TCPTP and PTP1B results in enhanced cytotoxicity and effector differentiation. CD8 T cells from OT-1 mice were activated/expanded by αCD3/αCD28 antibodies and IL-2 in the presence of different concentrations of TCPTP/PTP1B inhibitor (Inh1) for 5 days. Specific cytotoxicity against OVA expressing E.G7 thymoma cells was measure.
FIG. 12C illustrates the specific cytotoxicity against OVA expressing E.G7 thymoma cells from 5-day C57BL/6 CTLs treated with Inh1 or Inh2 at the concentrations specified. (one of three experiments shown).
To understand the functional capabilities of the CD8 T cells with combined deficiency of TCPTP and PTP1B, the conditional mutant mice of Example 1 were bred with OT-1 transgenic mice. […] Effector CD8 T cells also contribute to the immune response by the secretion of cytokines as IFN-γ, consequently the presence of this cytokine in the supernatant of target cell stimulated CTLs by ELISA was measured. An increase of the secretion of IFN-γ was detected in TCPTP and PTP1B single deficient cells at low effector to target ratios which was more stepped in the […] cells (FIG. 3C). […]
As the differentiation state of CD8 T cells was altered in the various genotypes analyzed before, how treatment with Inh1 altered the expression of differentiation markers was determined by flow cytometric analysis (FIGS. 5D and 5E). […]

[2] = mice; cited from earlier work
[3] = humans; phase 1 clinical studies; cited from earlier work

For N#CCc1ccc2cc(Br)c(C(F)(F)P(=O)(O)O)cc2c1 [Inh2], the “concentration inducing similar biological activity to Inh1” value [1] is given as 5 times lower, the systemic tolerability [2] is given as “tolerated systemically” and the systemic tolerability [3] is given as “tolerated systemically”.
